Measurements taken from patent US9353082B2, “Pharmaceutical compounds” (BIAL—PORTELA & CA, S.A., priority 2008, dated 2016).

What was measured:
FAAH [1] = target: T1, FAAH (Rattus norvegicus, UniProt P97612); test: In vitro FAAH activity in rat brain membranes, 3H-AEA substrate, % of control; format: biochemical, Wistar rats; conditions: low value = strong inhibitor; for In Vitro FAAH activity, 100 nM: 100 nM test compound; for In Vitro FAAH activity, 10 uM: 10 uM test compound
T1 construct: Frozen brains (without cerebellum) from Wistar rats were used; from tissue; host or cells: Wistar rat brain (without cerebellum), washed membrane pellets
T1 sequence (P97612 1-579): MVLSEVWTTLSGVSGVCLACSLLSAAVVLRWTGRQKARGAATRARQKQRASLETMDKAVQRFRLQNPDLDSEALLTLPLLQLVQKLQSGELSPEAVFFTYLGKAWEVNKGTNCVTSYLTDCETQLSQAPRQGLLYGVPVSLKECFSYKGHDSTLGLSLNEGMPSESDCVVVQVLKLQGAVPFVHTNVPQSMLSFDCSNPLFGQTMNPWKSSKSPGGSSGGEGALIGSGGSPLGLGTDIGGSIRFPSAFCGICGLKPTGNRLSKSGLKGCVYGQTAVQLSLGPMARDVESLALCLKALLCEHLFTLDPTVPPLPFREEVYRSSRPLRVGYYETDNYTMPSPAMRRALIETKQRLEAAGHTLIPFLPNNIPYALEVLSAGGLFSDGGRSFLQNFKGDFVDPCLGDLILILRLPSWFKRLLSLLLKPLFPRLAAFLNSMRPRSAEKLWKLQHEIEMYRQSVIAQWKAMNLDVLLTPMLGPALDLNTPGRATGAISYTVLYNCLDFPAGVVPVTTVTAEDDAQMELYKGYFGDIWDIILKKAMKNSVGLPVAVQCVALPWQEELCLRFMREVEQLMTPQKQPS
Procedure, shortened: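 FAAH activity measured as 3H-ethanolamine released from 2 μM [3H]AEA over 10 min by rat brain membrane preparation, after 15 min 37 °C preincubation with test compound at 10 or 0.1 μM. Charcoal-separated supernatant scintillation-counted; values expressed as % of control minus no-protein blank.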

FAAH [2] = target: T2, FAAH (Mus musculus, UniProt O08914); test: In vivo FAAH inhibition after oral dosing, remaining activity in brain homogenate (BRh, central nervous tissue); set-up: species or system NMRI mice; conditions: brain homogenate, 3 mg/kg, 8 h
T2 construct: A fragment of liver, left lung lobe and brain without cerebellum were removed; from tissue; host or cells: male NMRI mice; brain (without cerebellum) and liver homogenates
T2 sequence (O08914 1-579): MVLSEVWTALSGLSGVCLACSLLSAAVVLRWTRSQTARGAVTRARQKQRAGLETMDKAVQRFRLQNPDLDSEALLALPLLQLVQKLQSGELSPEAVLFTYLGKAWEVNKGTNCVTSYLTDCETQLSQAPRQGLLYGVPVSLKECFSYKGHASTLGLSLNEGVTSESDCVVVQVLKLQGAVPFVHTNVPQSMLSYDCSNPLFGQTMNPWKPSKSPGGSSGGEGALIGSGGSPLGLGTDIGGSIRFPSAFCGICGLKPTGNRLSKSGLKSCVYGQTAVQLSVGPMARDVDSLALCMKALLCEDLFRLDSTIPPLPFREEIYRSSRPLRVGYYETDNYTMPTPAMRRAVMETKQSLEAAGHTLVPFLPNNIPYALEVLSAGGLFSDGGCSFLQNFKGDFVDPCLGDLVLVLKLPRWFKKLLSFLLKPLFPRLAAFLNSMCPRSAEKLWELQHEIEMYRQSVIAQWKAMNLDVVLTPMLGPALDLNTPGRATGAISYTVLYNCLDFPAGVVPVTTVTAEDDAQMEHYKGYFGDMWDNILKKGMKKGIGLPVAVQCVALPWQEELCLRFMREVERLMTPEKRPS
Procedure, shortened: (§1)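 Remaining FAAH activity is given as % of vehicle-treated controls after blank subtraction, measured by radiolabelled AEA hydrolysis (2 μM AEA, 5 nM 3H-AEA, 37 °C) in brain (10 min) or liver (7 min) homogenates. These came from fasted male NMRI mice dosed orally at 30 or 3 mg/kg.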

FAAH [3] = target: T2, FAAH; test: In vivo FAAH inhibition after oral dosing, remaining activity in liver homogenate (LVh, peripheral tissue); set-up: species or system NMRI mice; conditions: liver homogenate, 3 mg/kg, 8 h
Procedure, shortened: as §1

SMILES | In Vitro FAAH activity, 100 nM (FAAH [1]) | In Vitro FAAH activity, 10 uM (FAAH [1]) | In Vivo BRh 3 mg/kg 8 h, remaining FAAH activity (FAAH [2]) | In Vivo LVh 3 mg/kg 8 h, remaining FAAH activity (FAAH [3])
COc1ccc(-c2cn(C(=O)N(C)C3CCCCC3)cn2)cc1OC [Compound 217, N-cyclohexyl-4-(3,4-dimethoxyphenyl)-N-methyl-1H-imidazole-1-carboxamide] | 80.5 % of control | 0 % of control | 6 % of control | 4.2 % of control
CC1(C)COCN1C(=O)n1cnc2ccccc21 [Compound 219, (1H-benzo[d]imidazol-1-yl)(4,4-dimethyloxazolidin-3-yl)methanone] | 111.6 % of control | 50.6 % of control | 86.8 % of control | 89 % of control
C[C@@H]1CCC[C@H](C)N1C(=O)n1cnc(-c2ccccc2)c1 [Compound 221, ((2R,6S)-2,6-dimethylpiperidin-1-yl)(4-phenyl-1H-imidazol-1-yl)methanone] | 105.8 % of control |  | 104.5 % of control | 44.9 % of control
CN(C(=O)n1cnc2ccccc21)C1CCCCC1 [Compound 222, N-cyclohexyl-N-methyl-1H-benzo[d]imidazole-1-carboxamide] | 102.9 % of control |  | 111.5 % of control | 59.2 % of control
CCC1(C)OCCN1C(=O)n1cnc(-c2ccc(Cl)cc2)c1 (stereo not shown) [Compound 233, (4-(4-chlorophenyl)-1H-imidazol-1-yl)(2-ethyl-2-methyloxazolidin-3-yl)methanone] | 74.1 % of control |  | 33.5 % of control | 21.1 % of control
CC1OCC(C)(C)N1C(=O)n1cnc(-c2ccc(Cl)cc2)c1 (stereo not shown) [Compound 235, (4-(4-chlorophenyl)-1H-imidazol-1-yl)(2,4,4-trimethyloxazolidin-3-yl)methanone] | 76.2 % of control |  | 108.5 % of control | 80.1 % of control
CN(C(=O)n1cnc(-c2cccc(-c3cccc(C(N)=O)c3)c2)c1)C1CCCCC1 [Compound 238, 4-(3′-carbamoylbiphenyl-3-yl)-N-cyclohexyl-N-methyl-1H-imidazole-1-carboxamide] | 1.2 % of control |  | 67.9 % of control | 2.8 % of control
COc1cccc(-c2cccc(-c3cn(C(=O)N(C)C4CCCCC4)cn3)c2)c1 [Compound 240, N-cyclohexyl-4-(3′-methoxybiphenyl-3-yl)-N-methyl-1H-imidazole-1-carboxamide] | 22.4 % of control |  | 99 % of control | 39.5 % of control
CN(C(=O)n1cnc(-c2cccc(-c3ccc(C(N)=O)cc3)c2)c1)C1CCCCC1 [Compound 245, 4-(4′-carbamoylbiphenyl-3-yl)-N-cyclohexyl-N-methyl-1H-imidazole-1-carboxamide] | 0.4 % of control |  | 90.6 % of control | 15.8 % of control
CN(C(=O)n1cnc(-c2cccc(-c3cccc(O)c3)c2)c1)C1CCCCC1 [Compound 247, N-cyclohexyl-4-(3′-hydroxybiphenyl-3-yl)-N-methyl-1H-imidazole-1-carboxamide] | 0.5 % of control |  | 131.7 % of control | 85.5 % of control
CN(C(=O)n1cnc(-c2cccc(-c3cccc(OC(F)(F)F)c3)c2)c1)C1CCCCC1 [Compound 248, N-cyclohexyl-N-methyl-4-(3′-(trifluoromethoxy)biphenyl-3-yl)-1H-imidazole-1-carboxamide] | 68.9 % of control |  | 104.2 % of control | 57 % of control

Continued, values first:

In Vitro FAAH activity, 100 nM (FAAH [1]) | In Vitro FAAH activity, 10 uM (FAAH [1]) | In Vivo BRh 3 mg/kg 8 h, remaining FAAH activity (FAAH [2]) | In Vivo LVh 3 mg/kg 8 h, remaining FAAH activity (FAAH [3]) | SMILES
108.6 % of control | 38.3 % of control | 29.3 % of control | 13.3 % of control | COc1ccc(-c2cn(C(=O)N3COCC3(C)C)cn2)cc1OC [Compound 216, (4-(3,4-dimethoxyphenyl)-1H-imidazol-1-yl)(4,4-dimethyloxazolidin-3-yl)methanone]
103.7 % of control |  | 31.5 % of control | 20 % of control | CC1(C)OCCN1C(=O)n1cnc(-c2ccccc2)c1 [Compound 220, (2,2-dimethyloxazolidin-3-yl)(4-phenyl-1H-imidazol-1-yl)methanone]
76.6 % of control |  | 8.4 % of control | 5.1 % of control | CC1(C)COCN1C(=O)n1cnc(-c2cccnc2)c1.Cl.Cl [Compound 226, (4,4-dimethyloxazolidin-3-yl)(4-(pyridin-3-yl)-1H-imidazol-1-yl)methanone dihydrochloride]
78.1 % of control |  | 56.4 % of control | 31.9 % of control | COc1cc(-c2cn(C(=O)N3COCC3(C)C)cn2)ccc1O [Compound 228, (4,4-dimethyloxazolidin-3-yl)(4-(4-hydroxy-3-methoxyphenyl)-1H-imidazol-1-yl)methanone]
54.2 % of control |  | 3.9 % of control | 3.6 % of control | CC1(C)COCN1C(=O)n1cnc(-c2cccc(-c3ccccc3)c2)c1 [Compound 231, (4-(biphenyl-3-yl)-1H-imidazol-1-yl)(4,4-dimethyloxazolidin-3-yl)methanone]
84.7 % of control | 0 % of control | 82.8 % of control | 6.5 % of control | CC1(C)COCN1C(=O)n1cnc(-c2cccc(-c3cccc(C(N)=O)c3)c2)c1 [Compound 232, 3′-(1-(4,4-dimethyloxazolidine-3-carbonyl)-1H-imidazol-4-yl)biphenyl-3-carboxamide]
75.4 % of control |  | 67.7 % of control | 37.7 % of control | COc1cccc(-c2cccc(-c3cn(C(=O)N4COCC4(C)C)cn3)c2)c1 [Compound 236, (4,4-dimethyloxazolidin-3-yl)(4-(3′-methoxybiphenyl-3-yl)-1H-imidazol-1-yl)methanone]
4 % of control |  | 16.4 % of control | 4.6 % of control | CN(C(=O)n1cnc(-c2cccc(-c3ccccc3)c2)c1)C1CCCCC1 [Compound 239, 4-(biphenyl-3-yl)-N-cyclohexyl-N-methyl-1H-imidazole-1-carboxamide]
